Counter-ions that a name gives are not always drawn.

For orientation: melting point means the temperature of the solid-liquid transition. For the molecule `CCC1(CCCCN2CCN(c3cccc(OC)c3)CC2)C(=O)Nc2ccccc21` (centres unmarked) [Example 91, 3-Ethyl-3-{4-[4-(3-methoxyphenyl)-piperazin-1-yl]-butyl}-1,3-dihydro-2H-indol-2-one], the melting point lay within 123 to 125 °C. Molecule `CCC1(CCCCN2CCN(c3cccc(Cl)c3)CC2)C(=O)Nc2ccc(Br)cc21` (centres unmarked) (as salt: oxalate) [Example 61, 5-Bromo-3-{4-[4-(3-chlorophenyl)-piperazin-1-yl]-butyl}-3-ethyl-1,3-dihydro-2H-indol-2-one monooxalate] showed a melting point of 200 to 202 °C. As to `CCC1(CCCCN2CCN(c3ccc(F)cc3Cl)CC2)C(=O)Nc2ccccc21` (centres unmarked) [Example 126, 3-{4-[4-(2-chloro-4-fluorophenyl)-piperazin-1-yl]-butyl}-3-ethyl-1,3-dihydro-2H-indol-2-one], the melting point is 125 to 126 °C. `CCC1(CCCCCN2CCN(c3ccccn3)CC2)C(=O)Nc2ccccc21` (centres unmarked) [Example 93, 3-Ethyl-3-[5-(4-pyridin-2-yl-piperazin-1-yl)-pentyl]-1,3-dihydro-2H-indol-2-one]: the melting point was in the range of 127 to 128 °C. `CCC1(CCCCN2CCN(c3cccc4c3OCCO4)CC2)C(=O)Nc2cc(F)ccc21` (centres unmarked) [Example 83, 3-{4-[4-(2,3-Dihydrobenzo[1,4]dioxin-5-yl)-piperazin-1-yl]-butyl}-3-ethyl-6-fluoro-1,3-dihydro-2H-indol-2-one] gave a melting point of 146 to 147 °C. With `CCC1(CCCCN2CCN(c3ccc(F)cc3)CC2)C(=O)Nc2ccc(F)cc21` (centres unmarked) [Example 111, 3-Ethyl-5-fluoro-3-{4-[4-(4-fluorophenyl)-piperazine-1-yl]-butyl}-1,3-dihydro-2H-indol-2-one], the melting point lay in the range of 119 to 122 °C. Molecule `CCC1(CCCCN2CCN(c3ccccc3)CC2)C(=O)Nc2ccccc21` (centres unmarked) (as salt: oxalate) [Example 68, 3-[4-(4-Phenylpiperazin-1-yl)-butyl]-3-ethyl-1,3-dihydro-2H-indol-2-one monooxalate] displayed a melting point of 121 to 123 °C.

`CCC1(CCCCN2CCN(c3cc(Cl)cc(Cl)c3)CC2)C(=O)Nc2ccc(F)cc21` (centres unmarked) [Example 114, 3-{4-[4-(3,5-dichlorophenyl)-piperazine-1-yl]-butyl}-3-ethyl-5-fluoro-1,3-dihydro-2H-indol-2-one] yielded a melting point of 122 to 124 °C.

As for `CCC1(CCCCN2CCN(c3ccc(C)c(Cl)c3)CC2)C(=O)Nc2ccccc21` (centres unmarked) [Example 99, 3-{4-[4-(3-Chloro-4-methylphenyl)-piperazin-1-yl]-butyl}-3-ethyl-1,3-dihydro-2H-indol-2-one], the melting point was 103 to 106 °C. With `CCC1(CCCCN2CCN(c3cccc(Cl)c3)CC2)C(=O)Nc2ccc(Cl)cc21` (centres unmarked) [Example 67, 5-Chloro-3-{4-[4-(3-chlorophenyl)-piperazin-1-yl]-butyl}-3-ethyl-1,3-dihydro-2H-indol-2-one], the melting point lay within 139 to 142 °C. The molecule `CCC1(CCCCN2CCN(c3ccc(Cl)cc3)CC2)C(=O)Nc2ccc(Cl)cc21` (centres unmarked) [Example 121, 5-chloro-3-{4-[4-(4-chlorophenyl)-piperazin-1-yl]-butyl}-3-ethyl-1,3-dihydro-indol-2-one] yielded a melting point of 186 to 188 °C. For the molecule `CCC1(CCCCN2CCN(c3cccc(Cl)c3)CC2)C(=O)Nc2ccc(F)cc21` (centres unmarked) (as salt: hydrochloride) [Example 85, 3-{4-[4-(3-Chlorophenyl)-piperazin-1-yl]-butyl}-3-ethyl-5-fluoro-1,3-dihydro-2H-indol-2-one mono-hydrochloride], the melting point is 121 to 124 °C.

Turning to `CC1(CCCCN2CCN(c3ccc(Cl)cc3)CC2)C(=O)Nc2c(Cl)cc(Cl)cc21` (centres unmarked) [Example 128, 5,7-dichloro-3-{4-[4-(4-chlorophenyl)-piperazin-1-yl]-butyl}-3-methyl-1,3-dihydro-2H-indol-2-one], the melting point lay within 168 to 170 °C.

In turn, `CCC1(CCCCN2CCN(c3ccccn3)CC2)C(=O)Nc2ccc(Cl)cc21` (centres unmarked) [Example 66, 5-Chloro-3-ethyl-3-[4-(4-pyridin-2-yl-piperazin-1-yl)-butyl]-1,3-dihydro-2H-indol-2-one] registered a melting point of 154 to 156 °C. Molecule `CCC1(CCCCN2CCN(c3ccc(F)c(Cl)c3)CC2)C(=O)Nc2ccccc21` (centres unmarked) [Example 100, 3-{4-[4-(3-Chloro-4-fluorophenyl)-piperazin-1-yl]-butyl}-3-ethyl-1,3-dihydro-2H-indol-2-one] came in with a melting point of 121 to 124 °C.

Turning to `CCC1(CCCCN2CCN(c3cccc(Cl)c3)CC2)C(=O)Nc2ccc(S(N)(=O)=O)cc21` (centres unmarked) (as salt: oxalate) [Example 72, 3-{4-[4-(3-Chlorophenyl)-piperazin-1-yl]-butyl}-3-ethyl-1,3-dihydro-2H-indol-2-one 5-sulfonamide monooxalate], the melting point lay in the range of 188 to 190 °C. `CCC1(CCCCCN2CCN(c3ccc(Cl)cc3)CC2)C(=O)Nc2c(Cl)cc(Cl)cc21` (centres unmarked) [Example 125, 5,7-Dichloro-3-{5-[4-(4-chlorophenyl)-piperazin-1-yl]-pentyl}-3-ethyl-1,3-dihydro-2H-indol-2-one] had a melting point of 145 to 148 °C. In turn, `CCC1(CCCCN2CCN(c3ccccn3)CC2)C(=O)Nc2ccc(C)cc21` (centres unmarked) [Example 80, 3-Ethyl-5-methyl-3-[4-(4-pyridin-2-yl-piperazin-1-yl)-butyl]-1,3-dihydro-2H-indol-2-one] registered a melting point of 168 to 170 °C. On to `CCC1(CCCCN2CCN(c3cccc(Cl)c3)CC2)C(=O)Nc2cc(F)ccc21` (centres unmarked) [Example 77, 3-{4-[4-(3-Chlorophenyl)-piperazin-1-yl]-butyl}-3-ethyl-6-fluoro-1,3-dihydro-2H-indol-2-one], for which the melting point lay in the range of 116 to 117 °C. `CCC1(CCCCN2CCN(c3ccc(Cl)cc3)CC2)C(=O)Nc2cc(F)c(Cl)cc21` (centres unmarked) [Example 122, 5-chloro-3-{4-[4-(4-chlorophenyl)-piperazin-1-yl]-butyl}-3-ethyl-6-fluoro-1,3-dihydro-2H-indol-2-one] had a melting point of 194 to 197 °C. The figure for `CCC1(CCCCN2CCN(c3ccc(F)cc3)CC2)C(=O)Nc2ccc(C)cc21` (centres unmarked) [Example 113, 3-Ethyl-3-{4-[4-(4-fluorophenyl)-piperazin-1-yl]-butyl}-5-methyl-1,3-dihydro-2H-indol-2-one] is 146 to 149 °C; for `CCC1(CCCCN2CCN(c3cccc(Cl)c3)CC2)C(=O)Nc2cc(F)c(Cl)cc21` (centres unmarked) (as salt: hydrochloride) [Example 89, 5-Chloro-3-{4-[4-(3-chlorophenyl)-piperazin-1-yl]-butyl}-3-ethyl-6-fluoro-1,3-dihydro-2H-indol-2-one monohydrochloride] it is 237 to 239 °C; for `CCC1(CCCCN2CCN(c3ccccn3)CC2)C(=O)Nc2ccc(F)cc21` (centres unmarked) [Example 84, 3-Ethyl-5-fluoro-3-[4-(4-pyridin-2-yl-piperazin-1-yl)-butyl]-1,3-dihydro-2H-indol-2-one] it is 144 to 147 °C. `CCC1(CCCCCN2CCN(c3ccc(Cl)cc3)CC2)C(=O)Nc2ccccc21` (centres unmarked) [Example 123, 3-{5-[4-(4-chlorophenyl)-piperazin-1-yl]-pentyl}-3-ethyl-1,3-dihydro-2H-indol-2-one]: the melting point is 142 to 143 °C. Molecule `CCC1(CCCCN2CCN(c3ccc(Cl)c(C(F)(F)F)c3)CC2)C(=O)Nc2ccccc21` (centres unmarked) (as salt: hydrochloride) [Example 96, 3-{4-[4-(4-Chloro-3-trifluoromethyl-phenyl)-piperazin-1-yl]-butyl}-3-ethyl-1,3-dihydro-2H-indol-2-one monohydrochloride] gave a melting point of 204 to 206 °C. The molecule `CCC1(CCCCN2CCN(c3ccc(Cl)c(Cl)c3)CC2)C(=O)Nc2ccc(F)cc21` (centres unmarked) [Example 115, 3-{4-[4-(3,4-dichlorophenyl)-piperazin-1-yl]-butyl}-3-ethyl-5-fluoro-1,3-dihydro-2H-indol-2-one] displayed a melting point of 152 to 155 °C. As for `CCC1(CCCCN2CCN(c3ccc(F)cc3)CC2)C(=O)Nc2c(Cl)cc(F)cc21` (centres unmarked) [Example 119, 7-chloro-3-ethyl-5-fluoro-3-{4-[4-(4-fluorophenyl)-piperazin-1-yl]-butyl}-1,3-dihydro-2H-indol-2-one], the melting point lay within 161 to 162 °C. The molecule `CCC1(CCCN2CCN(c3ccccn3)CC2)C(=O)Nc2ccccc21` (centres unmarked) [Example 58, 3-Ethyl-3-[3-(4-pyridin-2-yl-piperazin-1-yl)-propyl]-1,3-dihydro-2H-indol-2-one] displayed a melting point of 122 to 124 °C. `CCC1(CCCN2CCN(c3cccc(Cl)c3)CC2)C(=O)Nc2ccccc21` (centres unmarked) [Example 108, 3-{3-[4-(3-Chlorophenyl)-piperazin-1-yl]-propyl}-3-ethyl-1,3-dihydro-2H-indol-2-one] showed a melting point of 119 to 120 °C.

In turn, `CCC1(CCCCN2CCN(c3ccc(Cl)cc3)CC2)C(=O)Nc2ccc(C)cc21` (centres unmarked) [Example 73, 3-{4-[4-(4-Chlorophenyl)-piperazin-1-yl]-butyl}-3-ethyl-5-methyl-1,3-dihydro-2H-indol-2-one] gave a melting point of 175 to 177 °C. The figure for `CCC1(CCCCN2CCN(c3ccc(OC)cc3)CC2)C(=O)Nc2ccccc21` (centres unmarked) [Example 74, 3-Ethyl-3-{4-[4-(4-methoxyphenyl)-piperazin-1-yl]-butyl}-1,3-dihydro-2H-indol-2-one] is 109 to 110 °C; for `CCC1(CCCCN2CCN(c3ccccc3Cl)CC2)C(=O)Nc2ccccc21` (centres unmarked) [Example 81, 3-{4-[4-(2-Chlorophenyl)-piperazin-1-yl]-butyl}-3-ethyl-1,3-dihydro-2H-indol-2-one] it is 145 to 148 °C; for `CCC1(CCCCN2CCN(c3ccc(Cl)c(Cl)c3)CC2)C(=O)Nc2c(Cl)cc(Cl)cc21` (centres unmarked) [Example 124, 5,7-dichloro-3-{4-[4-(3,4-dichlorophenyl)-piperazin-1-yl]-butyl}-3-ethyl-1,3-dihydro-2H-indol-2-one] it is 164 to 165 °C. As to `CCC1(CCCCCCN2CCN(c3cccc(Cl)c3)CC2)C(=O)Nc2ccccc21.Cl` (centres unmarked), the melting point lay in the range of 124 to 127 °C. The figure for `CCC1(CCCCN2CCN(c3cccc(Cl)c3)CC2)C(=O)Nc2ccccc21` (centres unmarked) (as salt: HCl) (hydrate or solvate) [Example 60, 3-{4-[4-(3-Chlorophenyl)-piperazin-1-yl]-butyl}-3-ethyl-1,3-dihydro-2H-indol-2-one-H2O—HCl-isopropanol (1:1:1:1)] is 109 to 111 °C.

The values are drawn from patent US7786129B2, “Piperazine derivatives of dialkyl oxindoles” (Egis Gyogyszergyar Nyrt, priority 2004, dated 2010).
